In patent publication US10463644B2, “Uses of sesquiterpene lactone compounds and their derivatives in drugs preparation” (ACCENDATECH, priority 2013, dated 2019):

What was measured:
Format in all cases: in vivo
[1] = test system: TNF-α secreted by synoviocyte; experiment: Content of TNF-α in culture supernatant of synoviocyte of RA model rats given test compound; conditions: rat RA model, dose 30 mg/kg.2d, normal control 0.38 ± 0.027, NaCl 0.74 ± 0.098
Source text: (§1) Take Compound 1-50 prepared as per the method according to the present invention and employ the method provided in Reference to prepare model, group drugs and prepare culture supernatant of rat synoviocyte.
(§2) Employ the method provided in Reference to investigate the effects of the test compounds on the synoviocyte to secrete TNF-α and PGE2. Employ the method provided in Reference to investigate the effects of the test compounds on the synoviocyte to secrete IL-1β.
(§3) The experimental data of the test compound 1-50 at a dose of 30 mg/kg.2d as well as the normal control and NaCl group are as follows: […]

[2] = test system: PGE2 secreted by synoviocyte; experiment: Content of PGE2 in culture supernatant of synoviocyte of RA model rats given test compound; conditions: rat RA model, dose 30 mg/kg.2d, normal control 8.34 ± 1.29, NaCl 32.44 ± 10.32
Source text: as §1, §2, §3

[3] = test system: IL-1β secreted by synoviocyte; experiment: Content of IL-1β in culture supernatant of synoviocyte of RA model rats given test compound; conditions: rat RA model, dose 30 mg/kg.2d, normal control 0.16 ± 0.034, NaCl 0.49 ± 0.136
Source text: as §1, §2, §3

Compound | Content of TNF-α in culture supernatant of synoviocyte (x ± s) [1] [ng/mL] | Content of PGE2 in culture supernatant of synoviocyte (x ± s) [2] [ng/mL] | Content of IL-1β in culture supernatant of synoviocyte (x ± s) [3] [ng/mL] | Content of TNF-α in culture supernatant of synoviocyte (x ± s) ([1]; 30 mg/kg) [ng/mL] | Content of PGE2 in culture supernatant of synoviocyte (x ± s) ([2]; 30 mg/kg) [ng/mL] | Content of IL-1β in culture supernatant of synoviocyte (x ± s) ([3]; 30 mg/kg) [ng/mL]
C=C1C(=O)OC2C1CCC(C)=C1CCC(C)(OC(=O)CCC)C12 (stereo not drawn) [Compound 4] | 0.56 ± 0.064 | 24.49 ± 2.67 | 0.42 ± 0.064 |  |  | 
C=C1C(=O)OC2C1CCC(C)=C1CCC(C)(OC(=O)CC)C12 (stereo not drawn) [Compound 3] | 0.55 ± 0.042 | 26.96 ± 1.59 | 0.36 ± 0.039 |  |  | 
CCCCN(C)C[C@@H]1C(=O)O[C@H]2[C@H]1CCC1(CC1)[C@@H]1CCC3(CC3)[C@H]21 [Compound 41] | 0.45 ± 0.056 | 26.63 ± 1.59 | 0.41 ± 0.054 |  |  | 
O=C1O[C@H]2[C@@H](CCC3(CC3)[C@@H]3CCC4(CC4)[C@H]23)[C@@H]1Cn1cc(-c2ccccc2)nn1 [Compound 43] | 0.55 ± 0.045 | 24.64 ± 3.95 | 0.43 ± 0.062 |  |  | 
C=C1C(=O)OC2C1CCC(C)=C1CCC(C)(OC(=O)CC(C)C)C12 (stereo not drawn) [Compound 7] | 0.56 ± 0.044 | 22.82 ± 2.67 | 0.39 ± 0.058 |  |  | 
CN(CCO)C[C@@H]1C(=O)O[C@H]2[C@H]1CCC1(CC1)[C@@H]1CCC3(CC3)[C@H]21 [Compound 40] | 0.48 ± 0.078 | 25.34 ± 3.57 | 0.31 ± 0.061 |  |  | 
O=C1O[C@H]2[C@@H](CCC3(CC3)[C@@H]3CCC4(CC4)[C@H]23)[C@@H]1CNCc1ccccc1 [Compound 33] | 0.63 ± 0.054 | 26.64 ± 2.67 | 0.41 ± 0.052 |  |  | 
CC1CCN(C[C@@H]2C(=O)O[C@@H]3C4C(CCC45CC5)C4(CC[C@@H]23)CC4)CC1 (stereo partly drawn) [Compound 36] | 0.66 ± 0.045 | 25.64 ± 2.14 | 0.29 ± 0.064 |  |  | 
CC1=C2CC[C@@](C)(O)[C@@H]2[C@H]2OC(=O)[C@@H](CN(C)C)[C@@H]2CC1 [Compound 22] |  |  |  | 0.61 ± 0.082 | 24.69 ± 4.19 | 0.34 ± 0.038
C=C1C(=O)OC2C1CCC(C)=C1CCC(C)(OC(=O)CCl)C12 (stereo not drawn) [Compound 9] | 0.61 ± 0.065 | 27.92 ± 2.67 | 0.45 ± 0.064 |  |  | 
O=C1O[C@H]2[C@@H](CCC3(CC3)[C@@H]3CCC4(CC4)[C@H]23)[C@@H]1CNCCO [Compound 34] | 0.54 ± 0.067 | 24.61 ± 3.24 | 0.35 ± 0.059 |  |  | 
O=C1O[C@H]2[C@@H](CCC3(CC3)[C@@H]3CCC4(CC4)[C@H]23)[C@@H]1Cn1cc(CCCCO)nn1 [Compound 42] | 0.58 ± 0.055 | 22.58 ± 4.21 | 0.36 ± 0.059 |  |  | 
C#CCCCC(=O)O[C@]1(C)CCC2=C(C)CC[C@H]3C(=C)C(=O)O[C@@H]3[C@H]21 [Compound 19] | 0.62 ± 0.056 | 26.45 ± 5.21 | 0.42 ± 0.091 |  |  | 
CN1CCN(CC2C(=O)O[C@@H]3[C@@H]4[C@@H](CCC45CC5)C4(CC[C@@H]23)CC4)CC1 (stereo partly drawn) [Compound 37] | 0.59 ± 0.035 | 27.94 ± 2.69 | 0.31 ± 0.037 |  |  | 
O=C1O[C@H]2[C@@H](CCC3(CC3)[C@@H]3CCC4(CC4)[C@H]23)[C@@H]1CSc1ccccc1 [Compound 31] | 0.62 ± 0.056 | 24.41 ± 1.65 | 0.39 ± 0.051 |  |  | 
C=C1C(=O)OC2C1CCC(C)=C1CCC(C)(OC(=O)C=Cc3ccccc3)C12 (stereo not drawn) [Compound 17] | 0.66 ± 0.077 | 28.95 ± 3.24 | 0.37 ± 0.065 |  |  | 
C=C1C(=O)OC2C1CCC(C)=C1CCC(C)(OC(=O)CCCCBr)C12 (stereo not drawn) [Compound 12] | 0.66 ± 0.043 | 24.59 ± 2.35 | 0.38 ± 0.069 |  |  | 
COC(=O)c1cn(C[C@@H]2C(=O)O[C@H]3[C@H]2CCC2(CC2)[C@@H]2CCC4(CC4)[C@H]32)nn1 [Compound 44] | 0.54 ± 0.071 | 22.14 ± 2.87 | 0.35 ± 0.069 |  |  | 
C=C1C(=O)OC2C1CCC(C)=C1CCC(C)(OC(=O)CCc3ccccc3)C12 (stereo not drawn) [Compound 20] | 0.58 ± 0.045 | 27.38 ± 1.39 | 0.34 ± 0.056 |  |  | 
C=C1C(=O)OC2C1CCC(C)=C1CCC(C)(OC(=O)C=CC)C12 (stereo not drawn) [Compound 15] | 0.54 ± 0.045 | 24.39 ± 2.38 | 0.41 ± 0.051 |  |  | 
O=C1O[C@H]2[C@@H](CCC3(CC3)[C@@H]3CCC4(CC4)[C@H]23)[C@@H]1CN1CCCC1 [Compound 39] | 0.52 ± 0.056 | 28.35 ± 2.15 | 0.34 ± 0.095 |  |  | 
C=C1C(=O)OC2C1CCC(C)=C1CCC(C)(OC(=O)C(C)C)C12 (stereo not drawn) [Compound 6] | 0.61 ± 0.072 | 26.75 ± 1.69 | 0.36 ± 0.054 |  |  | 
COC[C@@H]1C(=O)O[C@H]2[C@H]1CCC1(CC1)[C@@H]1CCC3(CC3)[C@H]21 [Compound 30] | 0.65 ± 0.057 | 25.37 ± 4.21 | 0.38 ± 0.049 |  |  | 
O=C1O[C@H]2[C@@H](CCC3(CC3)[C@@H]3CCC4(CC4)[C@H]23)[C@@H]1CSCc1ccccc1 [Compound 32] | 0.64 ± 0.044 | 22.75 ± 4.25 | 0.37 ± 0.047 |  |  | 
CC(O)c1cn(C[C@@H]2C(=O)O[C@H]3[C@H]2CCC2(CC2)[C@@H]2CCC4(CC4)[C@H]32)nn1 (stereo partly drawn) [Compound 45] | 0.49 ± 0.056 | 23.26 ± 3.49 | 0.38 ± 0.039 |  |  | 
C=CCCC(=O)OC1(C)CCC2=C(C)CCC3C(=C)C(=O)OC3C21 (stereo not drawn) [Compound 18] | 0.64 ± 0.072 | 20.62 ± 2.47 | 0.39 ± 0.029 |  |  | 
C=C1C(=O)OC2C1CCC(C)=C1CCC(C)(OC(=O)C=C(C)C)C12 (stereo not drawn) [Compound 16] | 0.57 ± 0.073 | 27.61 ± 4.21 | 0.34 ± 0.039 |  |  | 
C=C1C(=O)OC2C1CCC(C)=C1CCC(C)(OC(=O)C(Cl)Cl)C12 (stereo not drawn) [Compound 10] | 0.54 ± 0.055 | 25.67 ± 7.12 | 0.42 ± 0.069 |  |  | 
O=C1O[C@H]2[C@@H](CCC3(CC3)[C@@H]3CCC4(CC4)[C@H]23)[C@@H]1CN1CCOCC1 [Compound 38] | 0.67 ± 0.045 | 19.67 ± 3.14 | 0.35 ± 0.062 |  |  | 
